Measured values taken from PubChem BioAssay (NCI).
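Each compound was tested at five concentrations against cells in 96-well plates for 48 hours. GI50 is the concentration that inhibits growth by half. TGI: total growth inhibition.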

Experiments:
Experiment in all cases: DTP human tumour cell line panel, 48 h
ACHN renal = tested on: ACHN renal
CCRF-CEM leukemia = tested on: CCRF-CEM leukemia
HS 578T breast = tested on: HS 578T breast
K-562 leukemia = tested on: K-562 leukemia
M14 melanoma = tested on: M14 melanoma
NCI-H226 lung = tested on: NCI-H226 lung
OVCAR-5 ovarian = tested on: OVCAR-5 ovarian
OVCAR-8 ovarian = tested on: OVCAR-8 ovarian
SK-MEL-28 melanoma = tested on: SK-MEL-28 melanoma
SNB-19 CNS = tested on: SNB-19 CNS

Row | SMILES | GI50 (ACHN renal) [µM] | TGI (ACHN renal) [µM] | GI50 (CCRF-CEM leukemia) [µM] | TGI (CCRF-CEM leukemia) [µM] | GI50 (HS 578T breast) [µM] | TGI (HS 578T breast) [µM] | GI50 (K-562 leukemia) [µM] | TGI (K-562 leukemia) [µM] | GI50 (M14 melanoma) [µM] | TGI (M14 melanoma) [µM] | GI50 (NCI-H226 lung) [µM] | TGI (NCI-H226 lung) [µM] | GI50 (OVCAR-5 ovarian) [µM] | TGI (OVCAR-5 ovarian) [µM] | GI50 (OVCAR-8 ovarian) [µM] | TGI (OVCAR-8 ovarian) [µM] | GI50 (SK-MEL-28 melanoma) [µM] | TGI (SK-MEL-28 melanoma) [µM] | GI50 (SNB-19 CNS) [µM] | TGI (SNB-19 CNS) [µM]
1 | COc1ccc(-c2cc(/C=C3\C(=O)Nc4ccc(Cl)cc43)[nH]n2)cc1 | 5.71 | 18.4 | 3.32 | 16.6 | 3.52 | 22.4 | 2.56 | 13.1 | 4.02 | 15.2 | 12.1 | 28.1 | 8.67 | 21.1 | 6.59 | 20 | 6.6 | 19.5 | 10.4 | 28
2 | O=[N+]([O-])c1ccc(N/N=C/c2c(O)ccc3ccccc23)nc1 | 0.775 | > 100 | 0.918 | > 100 | 57.8 | > 100 | > 100 | > 100 | 16.4 | > 100 | 93.8 | > 100 | > 100 | > 100 | 5.78 | > 100 | > 100 | > 100 | > 100 | > 100
3 | CC[C@@]1(O)C(=O)NCc2c1cc1n(c2=O)Cc2cc3c(N)cccc3nc2-1 | 1.23 | > 46.6 | 0.185 | > 19.5 | > 17.4 | > 64.3 | 3.09 | – | 0.685 | > 65.8 | 2.03 | > 38.9 | 11.8 | > 94.5 | 2.39 | > 78.7 | 8.8 | > 77.7 | 2.93 | > 50.7
4 | O=c1nc(Nc2cccc(Cl)c2)oc2cc(Cl)oc(=O)c12 | 5 | 24.8 | 2.87 | 14.9 | 2.81 | 17.4 | 16.4 | > 100 | 8.37 | 26.9 | 17.1 | 73.6 | 18.5 | 46.2 | 7.06 | 32.1 | 8.76 | 22.7 | 20 | > 100
5 | CCCCNN | – | > 100 | – | > 100 | – | > 100 | – | > 100 | – | > 100 | – | > 100 | – | > 100 | – | > 100 | – | > 100 | – | > 100
6 | C=C1C(=O)OC2CC1C(O)C/C(C)=C/CC/C(C)=C/C(O)CC2C (stereo not drawn) | – | 3.75 | – | 1.34 | – | 11 | – | > 30.5 | – | 9.63 | – | 24.8 | – | 24.7 | – | 4.72 | – | 9.8 | – | 18.9
7 | Cc1sc(C)c(Cc2c(C)sc(C)c2CCl)c1CCl | > 100 | > 100 | > 100 | > 100 | > 100 | > 100 | 23 | > 100 | > 100 | > 100 | > 100 | > 100 | > 100 | > 100 | > 100 | > 100 | > 100 | > 100 | > 100 | > 100
8 | N#Cc1c(-c2ccccc2)cc(-c2ccc(Nc3nc(Nc4ccc(Cl)cc4)nc(Nc4ccc(Cl)cc4)n3)cc2)nc1N | 1.64 | 3.26 | 3.1 | 9.4 | 1.2 | 6.02 | 2.15 | 7.59 | 1.79 | 3.67 | 1.73 | 3.75 | 4.13 | 17.6 | 3.94 | > 100 | 1.22 | 2.8 | 29.7 | > 100
9 | Cn1ccn2c3nc4ccccc4nc3c(=O)c(C#N)c12 | – | > 100 | – | > 100 | – | > 100 | – | > 100 | – | > 100 | – | > 100 | – | > 100 | – | > 100 | – | > 100 | – | > 100
10 | COCCOC(=O)NC(=O)Nc1ccc(/C(=N/O)c2ccc(Cl)cc2)cc1 | 0.186 | 48.8 | 0.0989 | 28.1 | 0.157 | 34.3 | 0.0633 | 31.9 | 0.0843 | 18.4 | 1.14 | 39.4 | 0.308 | 52.8 | 0.188 | 34.7 | 11.5 | 48 | 0.535 | > 100
11 | COc1ccc(/C=C/c2nc(NCCCN(C)C)c3ccccc3n2)cc1 | 17.1 | 31.7 | 2.02 | 4.53 | 3.22 | 11 | 1.99 | 4.4 | 2.16 | 4.81 | 12 | 30.7 | 5.58 | 13.6 | 4.75 | 18.7 | 4.57 | 9 | 4.31 | 9.67
12 | Nc1ccc(S(=O)(=O)C23CC4CC(CC(C4)C2)C3)cc1 | – | > 100 | – | > 100 | – | > 100 | – | > 100 | – | > 100 | – | > 100 | – | > 100 | – | > 100 | – | > 100 | – | > 100
13 | CC(C)c1ccc(C(=O)Nc2sc3c(c2C#N)CCC(=O)C3)cc1 | 0.33 | 1.06 | 0.189 | > 100 | 0.546 | > 100 | 0.203 | – | 0.592 | 26.4 | 3.88 | 16.3 | 0.552 | 5.11 | 0.431 | > 100 | 0.754 | 9.84 | 0.409 | > 100
14 | CC(C)c1ccc(/C(C(=O)O)=C(\O)C(=O)O)cc1 | – | > 100 | – | > 100 | – | > 100 | – | > 100 | – | > 100 | – | > 100 | – | > 100 | – | > 100 | – | > 100 | – | > 100
15 | CCOc1cc2c(NCCCN(CCO)CCO)ncnc2c(OCC)c1OCC | – | > 100 | – | > 100 | – | > 100 | – | > 100 | – | > 100 | – | > 100 | – | > 100 | – | > 100 | – | > 100 | – | > 100
16 | Cc1nc2sc(C(=O)Nc3cccc4ccccc34)c(N)c2cc1C(=O)c1ccccc1 | 2.73 | > 50 | 1.66 | > 50 | 1.3 | > 50 | 0.93 | > 50 | 1.23 | > 50 | 7.71 | > 50 | 2.27 | > 50 | 2.15 | > 50 | 4.95 | > 50 | 2.41 | > 50
17 | Cn1c(=O)c(Oc2ccccc2F)cc2cnc(NC3CCOCC3)nc21 | > 25 | > 25 | > 25 | > 25 | > 25 | > 25 | > 25 | > 25 | > 25 | > 25 | > 25 | > 25 | > 25 | > 25 | > 25 | > 25 | > 25 | > 25 | > 25 | > 25
